Measured values taken from patent publication US9540391B2, “Isomannide derivatives as inhibitors of soluble epoxide hydrolase” (SANOFI, priority 2013, dated 2017).
Where a name gives a salt, the structure may show the parent alone.

Target: T1, recombinant sEH (Homo sapiens, UniProt P34913)
T1 construct: made in house; host or cells: Sf9 insect cells
T1 sequence (P34913 1-555): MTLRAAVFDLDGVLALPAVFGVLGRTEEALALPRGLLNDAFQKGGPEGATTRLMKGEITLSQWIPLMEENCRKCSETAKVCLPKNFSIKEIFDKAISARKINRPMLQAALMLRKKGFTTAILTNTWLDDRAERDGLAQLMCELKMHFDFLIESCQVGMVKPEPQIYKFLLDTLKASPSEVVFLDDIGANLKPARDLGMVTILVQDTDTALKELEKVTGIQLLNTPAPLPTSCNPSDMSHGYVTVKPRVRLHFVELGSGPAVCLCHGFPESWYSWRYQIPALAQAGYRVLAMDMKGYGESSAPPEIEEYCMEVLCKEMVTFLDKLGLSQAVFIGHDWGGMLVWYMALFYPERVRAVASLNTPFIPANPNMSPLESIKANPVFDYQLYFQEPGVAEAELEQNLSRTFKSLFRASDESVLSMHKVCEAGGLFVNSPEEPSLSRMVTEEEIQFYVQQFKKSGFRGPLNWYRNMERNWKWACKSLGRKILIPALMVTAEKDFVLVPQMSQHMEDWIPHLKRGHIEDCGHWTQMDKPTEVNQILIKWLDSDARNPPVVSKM
Assay: biochemical screening assay for inhibition of soluble epoxide hydrolase (fluorometric, Phome substrate)
In short: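 Reading fluorescence before substrate addition and after completion corrected for autofluorescence. Reaction: 5 μM Phome, 2 nM recombinant human sEH (Sf9-expressed), compound 0.0001–10 μM, 25 mM Hepes with 0.01% albumin, 15 min pre-incubation then 60 min at 30 °C; IC50 derived from % inhibition.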

Point of comparison: `CCOC1COCCC1NC(=O)N[C@H]1CO[C@H]2[C@@H]1OC[C@@H]2Oc1cccnc1C` (stereo partly drawn) [Example 79, 1-(3-ethoxy-tetrahydro-pyran-4-yl)-3-[(3S,3aR,6S,6aS)-6-(2-methyl-pyridin-3-yloxy)-hexahydro-furo[3,2-b]furan-3-yl]-urea; hydrochloride], IC50 987 nM. Against it:
- Cc1cc(C)cc(NC(=O)NC2COC3C(CCc4ccsc4)COC23)c1 [Example 362, 1-(3,5-Dimethyl-phenyl)-3-[(3S,3aR,6R)-6-((S)-2-thiophen-3-yl-ethyl)-hexahydro-furo[3,2-b]furan-3-yl]-urea] — 110-fold lower, 9 nM
- Cc1cccnc1CCNC(=O)N[C@H]1CO[C@H]2[C@@H]1OC[C@@H]2Oc1cccnc1C [Example 205, 1-[2-(3-Methyl-pyridin-2-yl)-ethyl]-3-[(3S,3aR,6S,6aS)-6-(2-methyl-pyridin-3-yloxy)-hexahydro-furo[3,2-b]furan-3-yl]-urea] — 1.9-fold lower, 528 nM
- O=C(NC1CCCCC1)N[C@H]1CO[C@H]2[C@@H]1OC[C@@H]2Oc1cc(F)cc(F)c1 [Example 133, 1-Cyclohexyl-3-[(3S,3aR,6S,6aS)-6-(3,5-difluoro-phenoxy)-hexahydro-furo[3,2-b]furan-3-yl]-urea] — lower, < 1 nM
- O=C(NC1CCCCC1)N[C@H]1CO[C@H]2[C@@H]1OC[C@@H]2Oc1ccc(F)cc1 [Example 24, 1-Cyclohexyl-3-[(3S,3aR,6S,6aS)-6-(4-fluoro-phenoxy)-hexahydro-furo[3,2-b]furan-3-yl]-urea] — 250-fold lower, 4 nM
- O=C(Nc1ccc(Cl)c(Cl)c1)NC1COC2C(C#Cc3ccccc3)COC12 [Example 290, 1-(3,4-Dichloro-phenyl)-3-[(3S,3aR,6R)-6-((S)-phenylethynyl)-hexahydro-furo[3,2-b]furan-3-yl]-urea] — 76-fold lower, 13 nM
- O=C(NCCc1cccs1)N[C@H]1CO[C@H]2[C@@H]1OC[C@@H]2C#Cc1ccsc1 [Example 313, 1-(2-Thiophen-2-yl-ethyl)-3-((3S,3aR,6S,6aR)-6-thiophen-3-ylethynyl-hexahydro-furo[3,2-b]furan-3-yl)-urea] — 18-fold lower, 56 nM
- O=C(NC1CCCCC1)N[C@H]1CO[C@H]2[C@@H]1OC[C@@H]2Oc1cccc(Oc2ccccc2)c1 [Example 27, 1-Cyclohexyl-3-[(3S,3aR,6S,6aS)-6-(3-phenoxy-phenoxy)-hexahydro-furo[3,2-b]furan-3-yl]-urea] — 330-fold lower, 3 nM
- Cc1ncccc1O[C@H]1CO[C@H]2[C@@H]1OC[C@@H]2NC(=O)NC1CCCCC1(C)C (stereo partly drawn) [Example 270, 1-(2,2-Dimethyl-cyclohexyl)-3-[(3S,3aR,6S,6aS)-6-(2-methyl-pyridin-3-yloxy)-hexahydro-furo[3,2-b]furan-3-yl]-urea] — 62-fold lower, 16 nM
- O=C(NC1CCCCC1)N[C@H]1CO[C@H]2[C@@H]1OC[C@@H]2Oc1cccc(-c2ccccc2)c1 [Example 104, 1-[(3S,3aR,6S,6aS)-6-(Biphenyl-3-yloxy)-hexahydro-furo[3,2-b]furan-3-yl]-3-cyclohexyl-urea] — 200-fold lower, 5 nM
- O=C(NC1CCCCC1)N[C@H]1CO[C@H]2[C@@H]1OC[C@@H]2Sc1ncc(Cl)cn1 [Example 52, 1-[(3S,3aR,6S,6aS)-6-(5-Chloro-pyrimidin-2-ylsulfanyl)-hexahydro-furo[3,2-b]furan-3-yl]-3-cyclohexyl-urea] — 990-fold lower, 1 nM
- O=C(NC1CCCCC1)N[C@H]1CO[C@H]2[C@@H]1OC[C@@H]2Sc1cnccn1 [Example 55, 1-Cyclohexyl-3-[(3S,3aR,6S,6aS)-6-(pyrazin-2-ylsulfanyl)-hexahydro-furo[3,2-b]furan-3-yl]-urea] — lower, < 1 nM
- O=C(NC1CCCCC1)N[C@H]1CO[C@H]2[C@@H]1OC[C@@H]2Oc1c[nH]c2ccccc12 [Example 5, 1-cyclohexyl-3-[(3S,3aR,6S,6aS)-6-(1H-indol-3-yloxy)-hexahydro-furo[3,2-b]furan-3-yl]-urea] — 330-fold lower, 3 nM
- O=C(Nc1ccc(C(F)(F)F)cc1)NC1COC2C(C#Cc3ccsc3)COC12 [Example 308, 1-((3S,3aR,6S,6aR)-6-Thio-phen-3-ylethynyl-hexahydro-furo[3,2-b]furan-3-yl)-3-(4-trifluoromethyl-phenyl)-urea] — 21-fold lower, 48 nM
- Cc1nnc(S[C@H]2CO[C@H]3[C@@H]2OC[C@@H]3NC(=O)NC2CCCCC2)o1 [Example 43, 1-Cyclohexyl-3-[(3S,3aR,6S,6aS)-6-(5-methyl-[1,3,4]oxadiazol-2-ylsulfanyl)-hexahydro-furo[3,2-b]furan-3-yl]-urea] — 11-fold lower, 86 nM
- O=C(NCc1ccc(F)cc1)NC1COC2C(CCc3ccccc3)COC12 [Example 356, 1-(4-Fluoro-benzyl)-3-[(3S,3aR,6R)-6-((S)-phenethyl)-hexahydro-furo[3,2-b]furan-3-yl]-urea] — 7-fold lower, 140 nM
- O=C(Nc1ccccc1-c1ccccc1)N[C@H]1CO[C@H]2[C@@H]1OC[C@@H]2C#Cc1ccsc1 [Example 307, 1-Biphenyl-2-yl-3-((3S,3aR,6S,6aR)-6-thiophen-3-ylethynyl-hexahydro-furo[3,2-b]furan-3-yl)-urea] — 17-fold lower, 59 nM
- CC[C@@H](NC(=O)N[C@H]1CO[C@H]2[C@@H]1OC[C@@H]2Oc1ccc(F)cc1)c1ccccc1 [Example 154, 1-[(3S,3aR,6S,6aS)-6-(4-Fluoro-phenoxy)-hexahydro-furo[3,2-b]furan-3-yl]-3-((R)-1-phenyl-propyl)-urea] — 19-fold lower, 51 nM
- Cc1ncccc1O[C@H]1CO[C@H]2[C@@H]1OC[C@@H]2NC(=O)NC1CCC(C(C)(C)C)CC1 (stereo partly drawn) [Example 260, 1-(4-tert-Butyl-cyclohexyl)-3-[(3S,3aR,6S,6aS)-6-(2-methyl-pyridin-3-yloxy)-hexahydro-furo[3,2-b]furan-3-yl]-urea] — 120-fold lower, 8 nM
- O=C(Nc1ccc(F)cc1)NC1COC2C(CCc3ccsc3)COC12 [Example 366, 1-(4-Fluoro-phenyl)-3-[(3S,3aR,6R)-6-((S)-2-thiophen-3-yl-ethyl)-hexa-hydro-furo[3,2-b]furan-3-yl]-urea] — 110-fold lower, 9 nM
- CCCCOc1ccc(NC(=O)NC2COC3C(C=Cc4ccccc4)COC23)cc1 [Example 320, 1-(4-Butoxy-phenyl)-3-[(3S,3aR,6R)-6-((S)-(Z)-styryl)-hexahydro-furo[3,2-b]furan-3-yl]-urea] — 7-fold lower, 140 nM
- Cc1ncccc1O[C@H]1CO[C@H]2[C@@H]1OC[C@@H]2NC(=O)NC1CC(=O)N(c2ccccc2)C1 (stereo partly drawn) [Example 247, 1-[(3S,3aR,6S,6aS)-6-(2-Methyl-pyridin-3-yloxy)-hexahydro-furo[3,2-b]furan-3-yl]-3-(5-oxo-1-phenyl-pyrrolidin-3-yl)-urea] — 15-fold lower, 65 nM
- O=C(NC1CCCCC1)N[C@H]1CO[C@H]2[C@@H]1OC[C@@H]2Oc1ccccc1C(=O)N1CCOCC1 [Example 134, 1-Cyclohexyl-3-{(3S,3aR,6S,6aS)-6-[2-(morpholine-4-carbonyl)-phenoxy]-hexahydro-furo[3,2-b]furan-3-yl}-urea] — 49-fold lower, 20 nM
- O=C(Nc1cccc(C(F)(F)F)c1)N[C@H]1CO[C@@H]2[C@@H](CCc3ccsc3)CO[C@@H]21 [Example 375, 1-[(3S,3aR,6S,6aR)-6-(2-Thiophen-3-yl-ethyl)-hexahydro-furo[3,2-b]furan-3-yl]-3-(3-trifluoromethyl-phenyl)-urea] — 58-fold lower, 17 nM
- O=C(NC1CCCCC1)N[C@H]1CO[C@H]2[C@@H]1OC[C@@H]2Oc1cc(Br)ccc1Cl [Example 147, 1-[(3S,3aR,6S,6aS)-6-(5-Bromo-2-chloro-phenoxy)-hexahydro-furo[3,2-b]furan-3-yl]-3-cyclohexyl-urea] — 490-fold lower, 2 nM
- Cc1nc(-c2cccc(O[C@H]3CO[C@H]4[C@@H]3OC[C@@H]4NC(=O)NC3CCCCC3)c2)no1 [Example 129, 1-Cyclohexyl-3-{(3S,3aR,6S,6aS)-6-[3-(5-methyl-[1,2,4]oxadiazol-3-yl)-phenoxy]-hexahydro-furo[3,2-b]furan-3-yl}-urea] — 490-fold lower, 2 nM
- O=C(NC1CCCCC1)N[C@H]1CO[C@H]2[C@@H]1OC[C@@H]2Oc1ccc(C(=O)N2CCNCC2)cc1 [Example 126, 1-Cyclohexyl-3-{(3S,3aR,6S,6aS)-6-[4-(piperazine-1-carbonyl)-phenoxy]-hexahydro-furo[3,2-b]furan-3-yl}-urea; trifluoroacetate] — 33-fold lower, 30 nM
- Cc1ccc(O[C@H]2CO[C@H]3[C@@H]2OC[C@@H]3NC(=O)NC2CCCCC2)cn1 [Example 28, 1-Cyclohexyl-3-[(3S,3aR,6S,6aS)-6-(6-methyl-pyridin-3-yloxy)-hexahydro-furo[3,2-b]furan-3-yl]-urea] — 120-fold lower, 8 nM
- O=C(NC1CCCCC1)N[C@H]1CO[C@H]2[C@@H]1OC[C@@H]2SCC(F)(F)F [Example 45, 1-Cyclohexyl-3-[(3S,3aR,6S,6aS)-6-(2,2,2-trifluoro-ethylsulfanyl)-hexa-hydro-furo[3,2-b]furan-3-yl]-urea] — 39-fold lower, 25 nM
- Cc1cccc(CNC(=O)NC2COC3C(CCc4ccccc4)COC23)c1 [Example 359, 1-(3-Methyl-benzyl)-3-[(3S,3aR,6R)-6-((S)-phenethyl)-hexahydro-furo[3,2-b]furan-3-yl]-urea] — 8.9-fold lower, 111 nM
- Cc1cc(C)cc(NC(=O)N[C@H]2CO[C@H]3[C@H](CCc4ccccc4)CO[C@@H]32)c1 [Example 353, 1-(3,5-Dimethyl-phenyl)-3-[(3S,3aR,6R)-6-((S)-phenethyl)-hexa-hydro-furo[3,2-b]furan-3-yl]-urea] — 58-fold lower, 17 nM
